Experiment: phase I safety and tolerability
Assay type: in vivo, human

Q: With `CNC(=O)c1cccc(-c2ccc3c(N4CCOC[C@@H]4C)nc(N4CCOC[C@@H]4C)nc3n2)c1` [AZD2014] as the molecule, how does the “Fatigue, Any grade” value (Part A 70mg BD solution (N=5)) read?
A: 3 (60.0) Number (%) of patients

Q: And the “Fatigue, CTCAE grade 1-2” value (Part A 70mg BD solution (N=5))?
A: 2 (40.0) Number (%) of patients

Q: What about the “Hypokalemia, Any grade” value (Part A 70mg BD solution (N=5)) of the same molecule?
A: 1 (20.0) Number (%) of patients

Q: And the “Hypokalemia, CTCAE grade 1-2” value (Part A 70mg BD solution (N=5))?
A: 1 (20.0) Number (%) of patients

Q: What about the “Hypokalemia, CTCAE grade >=3” value (Part A 70mg BD solution (N=5)) of the same molecule?
A: 0 Number (%) of patients

Q: And the “Lower respiratory tract infection, Any grade” value (Part A 70mg BD solution (N=5))?
A: 1 (20.0) Number (%) of patients

Q: And the “Lower respiratory tract infection, CTCAE grade 1-2” value (Part A 70mg BD solution (N=5))?
A: 1 (20.0) Number (%) of patients

Q: What about the “Lower respiratory tract infection, CTCAE grade >=3” value (Part A 70mg BD solution (N=5)) of the same molecule?
A: 0 Number (%) of patients

Q: What about the “Mucositis, Any grade” value (Part A 70mg BD solution (N=5)) of the same molecule?
A: 5 (100.0) Number (%) of patients

Q: And the “Mucositis, CTCAE grade 1-2” value (Part A 70mg BD solution (N=5))?
A: 3 (60.0) Number (%) of patients

Q: And the “Mucositis, CTCAE grade >=3” value (Part A 70mg BD solution (N=5))?
A: 2 (40.0) Number (%) of patients

Q: And the “Nausea, Any grade” value (Part A 70mg BD solution (N=5))?
A: 3 (60.0) Number (%) of patients

Q: What about the “Nausea, CTCAE grade 1-2” value (Part A 70mg BD solution (N=5)) of the same molecule?
A: 3 (60.0) Number (%) of patients

Q: What about the “Nausea, CTCAE grade >=3” value (Part A 70mg BD solution (N=5)) of the same molecule?
A: 0 Number (%) of patients

Q: What about the “Pruritus, Any grade” value (Part A 70mg BD solution (N=5)) of the same molecule?
A: 0 Number (%) of patients

Q: And the “Pruritus, CTCAE grade 1-2” value (Part A 70mg BD solution (N=5))?
A: 0 Number (%) of patients

Q: What about the “Pruritus, CTCAE grade >=3” value (Part A 70mg BD solution (N=5)) of the same molecule?
A: 0 Number (%) of patients

Q: And the “Rash, Any grade” value (Part A 70mg BD solution (N=5))?
A: 1 (20.0) Number (%) of patients

Q: And the “Rash, CTCAE grade 1-2” value (Part A 70mg BD solution (N=5))?
A: 0 Number (%) of patients

Q: What about the “Rash, CTCAE grade >=3” value (Part A 70mg BD solution (N=5)) of the same molecule?
A: 1 (20.0) Number (%) of patients

Q: And the “Vomiting, Any grade” value (Part A 70mg BD solution (N=5))?
A: 0 Number (%) of patients

Q: What about the “Vomiting, CTCAE grade 1-2” value (Part A 70mg BD solution (N=5)) of the same molecule?
A: 0 Number (%) of patients

Q: And the “Vomiting, CTCAE grade >=3” value (Part A 70mg BD solution (N=5))?
A: 0 Number (%) of patients

Q: And the “Anemia, Any grade” value (Part A 100mg BD solution (N=4))?
A: 1 (25.0) Number (%) of patients

Q: And the “Anemia, CTCAE grade 1-2” value (Part A 100mg BD solution (N=4))?
A: 0 Number (%) of patients

Q: And the “Anemia, CTCAE grade >=3” value (Part A 100mg BD solution (N=4))?
A: 1 (25.0) Number (%) of patients

Q: What about the “Back pain, Any grade” value (Part A 100mg BD solution (N=4)) of the same molecule?
A: 2 (50.0) Number (%) of patients

Q: And the “Back pain, CTCAE grade 1-2” value (Part A 100mg BD solution (N=4))?
A: 2 (50.0) Number (%) of patients

Q: What about the “Back pain, CTCAE grade >=3” value (Part A 100mg BD solution (N=4)) of the same molecule?
A: 0 Number (%) of patients

Q: And the “Constipation, Any grade” value (Part A 100mg BD solution (N=4))?
A: 1 (25.0) Number (%) of patients

Q: What about the “Constipation, CTCAE grade 1-2” value (Part A 100mg BD solution (N=4)) of the same molecule?
A: 1 (25.0) Number (%) of patients

Q: What about the “Constipation, CTCAE grade >=3” value (Part A 100mg BD solution (N=4)) of the same molecule?
A: 0 Number (%) of patients

Q: What about the “Cough, Any grade” value (Part A 100mg BD solution (N=4)) of the same molecule?
A: 0 Number (%) of patients

Q: What about the “Cough, CTCAE grade 1-2” value (Part A 100mg BD solution (N=4)) of the same molecule?
A: 0 Number (%) of patients

Q: And the “Cough, CTCAE grade >=3” value (Part A 100mg BD solution (N=4))?
A: 0 Number (%) of patients

Q: What about the “Decreased appetite, Any grade” value (Part A 100mg BD solution (N=4)) of the same molecule?
A: 4 (100.0) Number (%) of patients

Q: What about the “Decreased appetite, CTCAE grade 1-2” value (Part A 100mg BD solution (N=4)) of the same molecule?
A: 4 (100.0) Number (%) of patients

Q: What about the “Decreased appetite, CTCAE grade >=3” value (Part A 100mg BD solution (N=4)) of the same molecule?
A: 0 Number (%) of patients

Q: What about the “Diarrhea, Any grade” value (Part A 100mg BD solution (N=4)) of the same molecule?
A: 1 (25.0) Number (%) of patients

Q: And the “Diarrhea, CTCAE grade 1-2” value (Part A 100mg BD solution (N=4))?
A: 1 (25.0) Number (%) of patients

Q: And the “Diarrhea, CTCAE grade >=3” value (Part A 100mg BD solution (N=4))?
A: 0 Number (%) of patients

Q: And the “Dry mouth, Any grade” value (Part A 100mg BD solution (N=4))?
A: 1 (25.0) Number (%) of patients

Q: What about the “Dry mouth, CTCAE grade 1-2” value (Part A 100mg BD solution (N=4)) of the same molecule?
A: 1 (25.0) Number (%) of patients

Q: And the “Dry mouth, CTCAE grade >=3” value (Part A 100mg BD solution (N=4))?
A: 0 Number (%) of patients

Q: And the “Dyspnea, Any grade” value (Part A 100mg BD solution (N=4))?
A: 2 (50.0) Number (%) of patients

Q: And the “Dyspnea, CTCAE grade 1-2” value (Part A 100mg BD solution (N=4))?
A: 2 (50.0) Number (%) of patients

Q: What about the “Dyspnea, CTCAE grade >=3” value (Part A 100mg BD solution (N=4)) of the same molecule?
A: 0 Number (%) of patients

Q: What about the “Fatigue, Any grade” value (Part A 100mg BD solution (N=4)) of the same molecule?
A: 4(100.0) Number (%) of patients

Q: What about the “Fatigue, CTCAE grade 1-2” value (Part A 100mg BD solution (N=4)) of the same molecule?
A: 2 (50.0) Number (%) of patients

Q: And the “Fatigue, CTCAE grade >=3” value (Part A 100mg BD solution (N=4))?
A: 2 (50.0) Number (%) of patients

Q: And the “Hypokalemia, Any grade” value (Part A 100mg BD solution (N=4))?
A: 0 Number (%) of patients

Q: What about the “Hypokalemia, CTCAE grade 1-2” value (Part A 100mg BD solution (N=4)) of the same molecule?
A: 0 Number (%) of patients

Q: What about the “Hypokalemia, CTCAE grade >=3” value (Part A 100mg BD solution (N=4)) of the same molecule?
A: 0 Number (%) of patients

Q: And the “Lower respiratory tract infection, Any grade” value (Part A 100mg BD solution (N=4))?
A: 0 Number (%) of patients

Q: And the “Lower respiratory tract infection, CTCAE grade 1-2” value (Part A 100mg BD solution (N=4))?
A: 0 Number (%) of patients

Q: And the “Lower respiratory tract infection, CTCAE grade >=3” value (Part A 100mg BD solution (N=4))?
A: 0 Number (%) of patients

Q: What about the “Mucositis, Any grade” value (Part A 100mg BD solution (N=4)) of the same molecule?
A: 3 (75.0) Number (%) of patients

Q: What about the “Mucositis, CTCAE grade 1-2” value (Part A 100mg BD solution (N=4)) of the same molecule?
A: 3 (75.0) Number (%) of patients

Q: What about the “Mucositis, CTCAE grade >=3” value (Part A 100mg BD solution (N=4)) of the same molecule?
A: 0 Number (%) of patients

Q: What about the “Nausea, Any grade” value (Part A 100mg BD solution (N=4)) of the same molecule?
A: 4 (100.0) Number (%) of patients

Q: And the “Nausea, CTCAE grade 1-2” value (Part A 100mg BD solution (N=4))?
A: 4 (100.0) Number (%) of patients

Q: And the “Nausea, CTCAE grade >=3” value (Part A 100mg BD solution (N=4))?
A: 0 Number (%) of patients

— publication PMC4512239 (Clinical cancer research : an official journal of the …, 2015)
